Source: patent US20060019971A1, “Treatment of cardiovascular disease with inhibitors of p38 kinase” (priority 2003, published 2006)

These molecules were tested against T1, p38 MAP kinase (Homo sapiens, UniProt Q16539) (assay: p38 MAP kinase phosphorylation assay (similar to Kumar)). Settings: assay similar to the phosphorylation assay (Kumar).
T1 construct: expressed in transfected cells; kinase immunoprecipitated from lysates
Type: biochemical
Experimental: Alternative assays involving in vitro analysis of potential inhibitors include those where cells (HeLa) transfected with DNA coding for relevant kinases can be activated with substances such as sorbitol, IL-1, TNF, or PMA (phorbol myristate acetate). After immunoprecipitation of cell lysates, equal aliquots of immune complexes of the kinases are pre-incubated for an adequate time with a specific concentration of the potential inhibitor followed by addition of kinase substrate buffer mix containing labeled ATP and GST-ATF2 or MBP. After incubation, kinase reactions are ceased by the addition of SDS loading buffer. Phosphorylated substrate is resolved through SDS-PAGE and visualized and quantitated in a phosphorimager. Both p38 regulation, in terms of phosphorylation, and IC50 values can be determined by quantitation. See, for example Kumar,S., McDonnell, P., Gum, R., Hand, A., Lee, J., and Young, P. (1997) Biochem. Biophys. Res. Commun. 235, 533-538.

T1 sequence (Q16539 whole entry): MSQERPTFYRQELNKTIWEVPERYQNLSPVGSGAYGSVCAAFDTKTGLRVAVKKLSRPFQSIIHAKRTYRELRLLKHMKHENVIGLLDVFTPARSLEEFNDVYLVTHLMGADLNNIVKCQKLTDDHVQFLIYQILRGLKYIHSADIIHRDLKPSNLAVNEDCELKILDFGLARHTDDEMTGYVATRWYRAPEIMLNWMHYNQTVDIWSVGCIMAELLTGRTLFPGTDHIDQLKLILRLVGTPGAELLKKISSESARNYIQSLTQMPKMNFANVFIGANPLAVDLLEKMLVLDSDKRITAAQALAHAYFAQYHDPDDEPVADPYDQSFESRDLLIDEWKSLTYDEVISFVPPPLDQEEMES

Row | Molecule | p38 MAP kinase activity
1 | COc1cc2c(cc1C(=O)N1CCC(Cc3ccc(F)cc3)CC1)c(C(=O)C(=O)O)cn2C [Compound 2] | exhibit p38 MAP kinase activity
2 | COc1cc2c(cc1C(=O)N1CCC(Cc3ccc(F)cc3)CC1)c(C(=O)C(=O)N1CCN(C)CC1)cn2C [Compound 3] | exhibit p38 MAP kinase activity
3 | COc1cc2c(cc1C(=O)N1C[C@H](C)N(Cc3ccc(F)cc3)C[C@@H]1C)c(C(=O)C(=O)N(C)C)cn2C [Compound 15] | exhibit p38 MAP kinase activity
4 | COc1cc2c(cc1C(=O)N1CCC(=Cc3ccc(F)cc3)CC1)c(C(=O)C(=O)N(C)C)cn2C [Compound 67] | exhibit p38 MAP kinase activity
5 | Cn1cc(C(=O)C(=O)N2CCCC2)c2cc(C(=O)N3CCC(Cc4ccc(F)cc4)CC3)c(Cl)cc21 [Compound 84] | exhibit p38 MAP kinase activity
6 | COCn1cc(C(=O)C(=O)N(C)C)c2cc(C(=O)N3C[C@H](C)N(Cc4ccc(F)cc4)C[C@H]3C)c(OC)cc21 [Compound 92] | exhibit p38 MAP kinase activity
7 | C[C@@H]1CN(Cc2ccc(F)cc2)[C@@H](C)CN1C(=O)c1cc2c(C(=O)C(=O)N3CCOCC3)cn(C)c2cc1Cl [Compound 96] | exhibit p38 MAP kinase activity
8 | COc1cc2[nH]cc(C(=O)C(=O)N3CCOCC3)c2cc1C(=O)N1CCC(Cc2ccc(F)cc2)CC1 [Compound 141] | exhibit p38 MAP kinase activity
9 | COc1cc2[nH]cc(C(=O)C(=O)N(C)C)c2cc1C(=O)N1CC(C)N(Cc2ccc(F)cc2)CC1C (centres unmarked) [Compound 154] | exhibit p38 MAP kinase activity
10 | Cc1[nH]c2cc(Cl)c(C(=O)N3CCC(Cc4ccc(F)cc4)CC3)cc2c1C(=O)C(=O)N1CCN(C)CC1 [Compound 169] | exhibit p38 MAP kinase activity

Each molecule was assayed on ET-1 mRNA in HPBMCs (assay: ET-1 gene expression in HPBMCs, real-time PCR). Settings: 10 μg/ml CRP added to 10% FCS, HPBMCs, 6 hours.
Type: cell-based, human
Experimental: 5×10^6 HPBMCs were plated in 6-well. After 1 hour medium was removed and cells were treated with vehicle or 1 μM P38 INHIBITOR in RPMI 1640 medium. After 1 hour cells were stimulated with 10% FCS only or 10 μg/ml CRP plus 10% FCS. After 6 hours RNA was extracted from the cells and ET-1 gene expression level was determined by real-time PCR as described in the Experimental section.
Cryopreserved human peripheral blood monocytes (HPBMCs, from Biowitker, Walkersvill, Md.) were thawed and washed twice in RPMI 1640. Cells were plated in tissue culture plates and incubated in 5% CO2 at 37 C. After 1 hr media were removed and cells were treated with various treatments. After 2 to 20 hours conditioned media and/or cell lysates were collected for the analyses of secreted cytokines, protein or mRNA expression. 10 μg/ml of purified human CRP (Calbiochem, San Diego, Calif.) was used in most of the treatments. In some experiments fetal calf serum (FCS from ATCC) was added to a final concentration of 10% together with CRP. In the examples provided herein, including those assessing the effects of p38 antagonism, cells were pre-treated with SD, a p38 small molecule inhibitor (Compound 162 in Table A) for 1 hour prior to CRP treatment as described above. In a parallel series of experiments, the effect of vehicle (DMSO) was tested. For TaqMan analyses of various gene expression cells were lysed in ice-cold RLT lysis buffer (Qiagen, Valencia, Calif.) and the lysates were kept in −80° C. until the analyses. […]
RNA was extracted from the cells using Qiagen RNA extraction kit according to the manufacturer's instruction. The expression of pro-inflammatory genes IL-1β, IL-6, IL-8, TNFα, COX-2, ET-1, TF were assessed by real-time PCR. […]
Real-time RT-PCR was performed in a two-step manner. cDNA synthesis and real-time detection were carried out in a PTC-100™ Thermal Cycler (MJ Research Inc, Waltham, Mass.) and an ABI Prism™ 7700 Sequence Detection System (Applied Biosystems, Foster City, Calif.), respectively. […] Relative quantitation of gene expression was performed using the relative standard curve method. […]

Row | Molecule | augmentation of ET-1 gene expression [fold]
11 | CRP: purified human CRP (Calbiochem), stimulus applied at 10 μg/ml to HPBMCs (protein, UniProt P02741 19-224, looked up) C-reactive protein: QTDMSRKAFVFPKESDTSYVSLKAPLTKPLKAFTVCLHFYTELSSTRGYSIFSYATKRQDNEILIFWSKDIGYSFTVGGSEILFEVPEVTVAPVHICTSWESASGIVEFWVDGKPRVRKSLKKGYTVGAEASIILGQEQDSFGGNFEGSQSLVGDIGNVNMWDFVLSPDEINTIYLGGPFSPNVLNWRALKYEVQGEVFTKPQLWP | 1.7
